This is an account of results in US5202315A, “Cephalosporin compounds” (Lucky, Ltd., priority 1989, dated 1993).

Holding throughout (assay): Antibacterial activity, MIC
Common to all, as to type: cell-based

Test [1] deals with Shigella sonnei ATCC 11060. The protocol:
(§1) Also, the in vitro antibacterial activity was determined by the by a two-fold dilution method as described below:
(§2) That is, the two-fold serial dilutions of the compound were made dispersed in Muller-Hinton agar medium. 2 μl of standard test strain which had the 10^7 CFU per ml was inoculated on the medium, and was incubated at 37° C. for 20 hours.

Test [2] deals with Escherichia coli ATCC 10536. Conditions: ATCC10536, agar two-fold dilution, 37° C., 20 hours. The protocol:
as §1, §2

Test [3] has as its system Staphylococcus aureus ATCC 6538p. Conditions: ATCC6538P, ATCC 6538p, agar two-fold dilution, 37° C., 20 hours, read-out: MIC. The protocol:
as §1, §2

The subject of test [4] is Bacillus megaterium ATCC 9885. Conditions: Priestia megaterium, ATCC9885; ATCC 9885; agar two-fold dilution, 37° C., 20 hours; read-out: MIC. The protocol: as §1, §2
The subject of test [5] is Enterobacter aerogenes ATCC 29751. Conditions: Klebsiella aerogenes, ATCC29751; ATCC 29751; agar two-fold dilution, 37° C., 20 hours; read-out: MIC. The protocol:
as §1, §2

Test [6] has as its system Pseudomonas aeruginosa ATCC 25619. Conditions: ATCC25619, ATCC 25619, agar two-fold dilution, 37° C., 20 hours, read-out: MIC. The protocol: as §1, §2
Test [7] concerns Proteus vulgaris ATCC 6059. Conditions: ATCC6059, ATCC 6059, agar two-fold dilution, 37° C., 20 hours, read-out: MIC. The protocol:
as §1, §2

Test [8] deals with Salmonella typhimurium ATCC 14028. Conditions: Salmonella enterica; ATCC 14028; agar two-fold dilution, 37° C., 20 hours; read-out: MIC. The protocol: as §1, §2
Test [9] relates to Morganella morganii ATCC 8076h. Conditions: ATCC8076H, agar two-fold dilution, 37° C., 20 hours. The protocol:
as §1, §2

The subject of test [10] is Bacillus cereus ATCC 11778. Conditions: ATCC11778, ATCC 11778, agar two-fold dilution, 37° C., 20 hours, read-out: MIC. The protocol:
as §1, §2

Test [11] deals with Staphylococcus epidermidis ATCC 12228. Conditions: ATCC12228, ATCC 12228, agar two-fold dilution, 37° C., 20 hours, read-out: MIC. The protocol:
as §1, §2

Test [12] concerns Serratia marcescens ATCC 27117. Conditions: ATCC27117, ATCC 27117, agar two-fold dilution, 37° C., 20 hours, read-out: MIC. The protocol:
as §1, §2

In test [13] the test system is Acinetobacter calcoaceticus ATCC 15473. Conditions: ATCC15473, ATCC 15473, agar two-fold dilution, 37° C., 20 hours, read-out: MIC. The protocol:
as §1, §2

In test [14] the test system is Citrobacter freundii ATCC 8090. Conditions: ATCC8090, ATCC 8090, agar two-fold dilution, 37° C., 20 hours, read-out: MIC. The protocol:
as §1, §2

Test [15] deals with Providencia rettgeri ATCC 9250. Conditions: ATCC9250, agar two-fold dilution, 37° C., 20 hours. The protocol: as §1, §2
Test [16] concerns Enterobacter cloacae ATCC 27508. Conditions: ATCC27508, ATCC 27508, agar two-fold dilution, 37° C., 20 hours, read-out: MIC. The protocol:
as §1, §2

Test [17] has as its system Shigella flexneri ATCC 11836. Conditions: ATCC11836, agar two-fold dilution, 37° C., 20 hours. The protocol: as §1, §2
Test [18] relates to Klebsiella pneumoniae ATCC 10031. Conditions: ATCC10031, ATCC 10031, agar two-fold dilution, 37° C., 20 hours, read-out: MIC. The protocol:
as §1, §2

Test [19] has as its system Escherichia coli ATCC 25922. Conditions: ATCC25922, agar two-fold dilution, 37° C., 20 hours. The protocol:
as §1, §2

Test [20] has as its system Staphylococcus aureus ATCC 10537. Conditions: ATCC10537, ATCC 10537, agar two-fold dilution, 37° C., 20 hours, read-out: MIC. The protocol: as §1, §2
Test [21] concerns Micrococcus luteus ATCC 9341. Conditions: ATCC9341, ATCC 9341, agar two-fold dilution, 37° C., 20 hours, read-out: MIC. The protocol: as §1, §2
Test [22] concerns Pseudomonas aeruginosa ATCC 27853. Conditions: ATCC27853, ATCC 27853, agar two-fold dilution, 37° C., 20 hours, read-out: MIC. The protocol:
as §1, §2

For test [23], the system named is Pseudomonas aeruginosa ATCC 10145. Conditions: ATCC10145, ATCC 10145, agar two-fold dilution, 37° C., 20 hours, read-out: MIC. The protocol:
as §1, §2

The test system of test [24] is Proteus mirabilis ATCC 25933. Conditions: ATCC25933, ATCC 25933, agar two-fold dilution, 37° C., 20 hours, read-out: MIC. The protocol: as §1, §2

Molecules are shown by their SMILES. ≈ marks a conversion by molar mass, not a printed value. Where two headings read alike, the source gives them in different places. Some results are limits rather than exact numbers.

With `CCO/N=C(\C(=O)NC1C(=O)N2C(C(=O)[O-])=C(CSc3nc(N)cc(N)[n+]3C)CSC12)c1csc(N)n1` (stereo not drawn) [Compound I-11], the MIC in [1] (ATCC11060, 20 h) amounted to 0.13 µg/mL (≈ 0.23 µM); in test [2], 0.13 µg/mL (≈ 0.23 µM); in test [3], 0.25 µg/mL (≈ 0.442 µM); in test [4], 0.13 µg/mL (≈ 0.23 µM); in test [5], 0.5 µg/mL (≈ 0.884 µM); in test [6], 2 µg/mL (≈ 3.54 µM). Besides, the MIC in test [7] is 0.25 µg/mL (≈ 0.442 µM); in [8] it was 0.25 µg/mL (≈ 0.442 µM); in [9], not above 0.008 µg/mL; in test [10], 32 µg/mL (≈ 56.6 µM); in test [11], 0.063 µg/mL (≈ 0.111 µM); in test [12], 0.13 µg/mL (≈ 0.23 µM). Moreover, the MIC is 4 µg/mL (≈ 7.07 µM) in test [13]; 0.063 µg/mL (≈ 0.111 µM) in test [14]; not above 0.008 µg/mL in [15]; not above 0.008 µg/mL in test [16]; 0.031 µg/mL (≈ 0.0548 µM) in [17]; 0.016 µg/mL (≈ 0.0283 µM) in test [18]. In addition, the MIC in test [19] is 0.13 µg/mL (≈ 0.23 µM); in [20], 0.25 µg/mL (≈ 0.442 µM); in [21], 0.016 µg/mL (≈ 0.0283 µM); in test [22], 4 µg/mL (≈ 7.07 µM); in test [23], 8 µg/mL (≈ 14.1 µM); in test [24] it was 0.25 µg/mL (≈ 0.442 µM).
Take `CO/N=C(\C(=O)NC1C(=O)N2C(C(=O)[O-])=C(CSc3nc(N)cc(N)[n+]3C)CSC12)c1csc(N)n1` (stereo not drawn) [Compound I-10]: the minimal inhibitory concentration (MIC) in [1] (ATCC11060, ATCC 11060, agar two-fold dilution, 37° C., 20 hours, read-out: MIC) stood at 0.063 µg/mL (≈ 0.114 µM); in [2] it was 0.063 µg/mL (≈ 0.114 µM); in test [3], 0.25 µg/mL (≈ 0.453 µM); in test [4], 0.25 µg/mL (≈ 0.453 µM); in test [5] it was 0.5 µg/mL (≈ 0.906 µM); in test [6] it was 2 µg/mL (≈ 3.63 µM). Also, the minimal inhibitory concentration (MIC) was 0.13 µg/mL (≈ 0.236 µM) in test [7]; 0.25 µg/mL (≈ 0.453 µM) in test [8]; not above 0.008 µg/mL in test [9]; 32 µg/mL (≈ 58 µM) in test [10]; 0.13 µg/mL (≈ 0.236 µM) in [11]; 0.063 µg/mL (≈ 0.114 µM) in test [12]. Also, the MIC in test [13] is 8 µg/mL (≈ 14.5 µM); in test [14] it was 0.063 µg/mL (≈ 0.114 µM); in test [15], not above 0.008 µg/mL; in test [16] it was not above 0.008 µg/mL; in test [17], 0.016 µg/mL (≈ 0.029 µM); in test [18] it was 0.016 µg/mL (≈ 0.029 µM). The minimal inhibitory concentration (MIC) is 0.063 µg/mL (≈ 0.114 µM) in [19]; 0.25 µg/mL (≈ 0.453 µM) in test [20]; 0.063 µg/mL (≈ 0.114 µM) in test [21]; 8 µg/mL (≈ 14.5 µM) in [22]; 32 µg/mL (≈ 58 µM) in test [23]; 0.13 µg/mL (≈ 0.236 µM) in test [24].

One may read the MIC as the lowest concentration found to suppress growth.
